Experimental data: patent publication US5969115A, “Bisazo dyes and their preparation and use” (Ilford Imaging Switzerland GMBH, priority 1997, dated 1999)

Assays:
Format in all cases: physicochemical
[1] = Light fastness of printed samples (density loss after xenon lamp irradiation); conditions: for Density loss in %: xenon lamp, total illumination 20 kJoule/cm^2
Method: (§1) The present invention, as far as it relates to inks, is further illustrated by the following examples using dyes according to our invention described in Tables 1 and 2 and dyes representing the state of the art described in Tables 3 and 4. 100 g of each ink were prepared by heating the necessary amount of dye (3-7 g), glycerol (5 g), tetraethylenglycol (1.1 g). and a biocide solution (Promexal X50, available from Zeneca, Manchester, England) (1.2 g) together with water at a temperature of 50° C. under stirring for one hour. The resulting solution was cooled down to 20° C., pH was adjusted to 7.5 and passed through a Millipore® filter of 0.5 μm pore diameter. The dye quantity was adjusted in a way that the density of the printed images was the same for all dyes.
(§2) 30 g of gelatin with a high isoelectric point (type St 70,810, available from Deutsche Gelatinefabriken, Eberbach, Germany) were dissolved in 360 ml of deionised water. 1 g of a surfactant (Olin 10G, available from Olin Corporation, Norwalk, USA) were added to this solution. Immediately before coating 6.6 g of a solution of 2-(4-dimethyl-carbamoyl-pyridino)-ethanesulfonate (3%) were added and pH was adjusted to 6.5. 100 g/m^2 of this solution was then coated onto a resin coated paper support using a bar coater. The recording medium prepared in this way was dried for 12 hours.
(§3) The inks were then jetted onto this recording medium with an HP560 ink jet printer from Hewlett-Packard. The properties of the printed samples were evaluated later on.
The printed samples were irradiated in an Atlas Ci35A Weather-O-Meter® with a r 6500 W Xenon lamp until a total illumination of 20 kJoule/cm^2 was reached. The density loss was measured with an X-Rite® densitometer. It is expressed as % loss of initial density.

[2] = Color co-ordinates (L*a*b*) of printed samples
Method: as §1, §2, §3
L*a*b*-values were measured on printed samples using a Gretag SPM 100 spectrometer, available from Gretag AG, Regensdorf, Switzerland.
Black dyes show a neutral hue if the values of a* and b*out of the L*a*b* color co-ordinates are zero.

[3] = Dye solubility in deionised water; conditions: for Solubility: deionised water, stirred 1 hour at 50° C., cooled to 20° C., Table 5; for solubility compared with previously known dyes 24 and 26: in words
Method: The dye was dispersed in deionised water and this dispersion was stirred for 1 hour at 50° C. Then the mixture was cooled down to 20° C., centrifuged and filtered. Dye solubility was calculated a) from visible spectral data of the filtered solution or b) based on the dried filter residue.

[4] = Absorption maximum in water
Excerpt: The absorption maxima and the results of the tests (B) to (D) are listed in Table 6 for the dyes of the invention and in Table 7 for the dyes that are state of the art.

light fastness ([1]; printed samples, in words)	Density loss in % ([1]; Table 6) [%]	L*a*b*-value: L* ([2]; Table 6)	L*a*b*-value: a* ([2]; Table 6)	L*a*b*-value: b* ([2]; Table 6)	neutral black (color co-ordinates) ([2]; in words)	Solubility [3] [g per 100 ml]	solubility compared with previously known dyes 24 and 26 [3]	HD max in water ([4]; Table 6) [nm]	Density loss in % ([1]; state of the art dyes, Table 7) [%]	L*a*b*-value: L* ([2]; state of the art dyes, Table 7)	L*a*b*-value: a* ([2]; state of the art dyes, Table 7)	L*a*b*-value: b* ([2]; state of the art dyes, Table 7)	HD max in water ([4]; state of the art dyes, Table 7) [nm]	Compound
excellent light fastness	14	17.3	4.0	-6.6	neutral blacks	> 20	considerably higher solubility	577						O=S(=O)(O)CCNc1ccc2cc(S(=O)(=O)O)c(N=Nc3ccc(N=Nc4ccc(CS(=O)(=O)O)cc4)c4ccc(S(=O)(=O)O)cc34)c(O)c2c1 [Compound 8]
	1	3.8	3.4	0.5		> 20	considerably higher solubility	580						O=C(O)c1cc(N=Nc2ccc(N=Nc3c(S(=O)(=O)O)cc4ccc(NCCS(=O)(=O)O)cc4c3O)c3cc(S(=O)(=O)O)ccc23)cc(C(=O)O)c1 [Compound 16]
						17			8	14.7	14.4	-14.6	568	O=C(O)CCNc1ccc2cc(S(=O)(=O)O)c(N=Nc3ccc(N=Nc4cccc(C(=O)O)c4)c4ccc(S(=O)(=O)O)cc34)c(O)c2c1 [Compound 26, reference compound]
